Here are results for 78 compounds from the METLIN SMRT retention time set (Domingo-Almenara et al. 2019).

This series in a line: gradient 5% acetonitrile 3 min, to 50% in 2 min, to 85% in 15 min, held 3 min, 100 µL/min. Conditions: column: Zorbax Extend-C18 2.1 x 50 mm; eluents: water / acetonitrile, 0.1% formic acid. In outline:
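Using water and acetonitrile that each contained 0.1% formic acid, mixtures of ~100 pure standards were separated at 100 μL/min on a Zorbax Extend-C18 column (2.1 × 50 mm, 1.8 μm). The HPLC fed a quadrupole time-of-flight mass spectrometer working in positive and negative ionization mode, with dead and dwell volumes of 40 μL and 900 μL. Data were acquired over 3 months. Retention time was read from computationally picked adduct peaks after manual inspection of each.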
With `COc1ccc(-c2nnc(-c3cc(S(=O)(=O)NCc4cccnc4)ccc3Cl)o2)cc1`, the RP-LC retention time was 696 s.

In turn, `CN(C)CCSc1ncccc1C(=O)NCc1cccs1` showed an RP-LC retention time of 583 s. For `CCCSCCCNC(=O)Cn1cnc2nc3c(cc2c1=O)CCCC3` the value was 739 s; for `CC(C)CN1C(=O)CCc2cc(NS(=O)(=O)c3cccc(F)c3)ccc21`, 898 s. Compound `Cc1[nH]c(=O)[nH]c(=O)c1CCC(=O)N1CCC(c2nc3ccccc3o2)CC1` had an RP-LC retention time of 600 s. With `O=C(Nc1nc(-c2ccccc2)c(-c2ccccc2)o1)NC1CCCCC1`, the RP-LC retention time worked out at 1320 s.

Turning to `O=C(COc1ccccc1F)NC1CCCC(OC(=O)Nc2ccccc2)C1` (stereo not drawn), the RP-LC retention time worked out at 872 s. Take `Cc1noc(-c2cccc(OC3CN(C(=O)c4cccc5[nH]ccc45)C3)c2)n1`: the RP-LC retention time was found to be 824 s.

For the compound `O=S(=O)(c1ccc(F)c(F)c1)N1CCc2nc(-c3ccccc3)ncc2C1`, the RP-LC retention time is 1090 s. Regarding `N#C/C(=C\c1ccc(-c2cc(Cl)ccc2Cl)o1)C(=O)Nc1cccc2ncccc12`, the RP-LC retention time was 1110 s.

`CCOc1cccc(-c2noc(Cn3ccn(-c4ccccc4C)c(=O)c3=O)n2)c1` gave an RP-LC retention time of 911 s. As to `CCCn1c(=O)sc2cc(S(=O)(=O)N3CCC(C(=O)Nc4ncccc4C)CC3)ccc21`, the RP-LC retention time amounted to 660 s. For `O=C(Cn1ccc2ccc(N3CCOCC3)nc21)N1CCN(c2ccccc2Cl)CC1` the value was 1060 s; for `COC(=O)c1ccc(Cl)cc1NC(=O)N1CCCn2nc(-c3ccncc3)cc2C1`, 715 s. The compound `Cc1oc(-c2[nH]ncc2C(=O)N(C)C)cc1S(=O)(=O)Nc1cccc(Cl)c1` gave an RP-LC retention time of 703 s.

With `COc1cccc(CC(=O)N2CCCC2c2cc(C)on2)c1` (stereo not drawn), the RP-LC retention time is 757 s. Regarding `Cc1noc(C)c1-c1ccc(S(=O)(=O)N2CCc3ccccc3C2)cc1`, the RP-LC retention time stood at 1050 s. Under `Cc1nn(-c2ccc3nnc(C)n3n2)c(C)c1CCC(=O)NCCc1c[nH]c2ccccc12` stands 726 s. In the case of `C[C@@H](Oc1cc(-n2cnc3ccc(CN4CCN(C)CC4)cc32)sc1C(N)=O)c1ccccc1C(F)(F)F`, the RP-LC retention time is 690 s. For `Cc1cc(OCC(=O)N2CCN(c3ccccn3)CC2)nc2c1c(C)nn2-c1ccccc1` the value was 693 s. `COc1cccc(N2CCN(c3cc(SCC(=O)NCC4CCCO4)ncn3)CC2)c1` (stereo not drawn) yielded an RP-LC retention time of 769 s. `CCOC(=O)c1c(C)c(CCC(=O)NCc2ccco2)n(C)c1C` displayed an RP-LC retention time of 792 s.

The compound `CCOC(=O)c1c(S(=O)(=O)N2CCC(C(=O)NCc3cccc(OC)c3)CC2)c(C)n(C)c1C` yielded an RP-LC retention time of 772 s. `O=C(Nc1cnn(-c2ncncc2N2CCCC2)c1)c1cccc(C(F)(F)F)c1`: the RP-LC retention time amounted to 797 s. In turn, `COc1ccc(NS(=O)(=O)c2cn(C(C)C)c3ncccc23)cc1` had an RP-LC retention time of 840 s. `CC(C)(C)NC(=O)CN1CCC(c2nc(-c3ccc(F)cc3)no2)CC1` returned an RP-LC retention time of 675 s. In the case of `CCOC(=O)Cc1ccc(NC(=O)N2CCc3nc[nH]c3C2)cc1`, the RP-LC retention time stood at 588 s.

`O=C(Nc1ccc2c(c1)C(=O)NCC2)Nc1ccccc1C(F)(F)F` came in with an RP-LC retention time of 694 s. Turning to `COc1ccc(C)cc1NC(=O)Cn1cnc2nc(N3CCC(C(=O)NC4CC4)CC3)sc2c1=O`, the RP-LC retention time came to 723 s.

For the compound `CCn1c(=O)oc2cc(-c3noc(-c4ccc(Cl)cc4OC)n3)ccc21`, the RP-LC retention time was found to be 1170 s.

In the case of `Cc1ccc(-n2ncc3c(NCCCN(C)C)ncnc32)cc1C`, the RP-LC retention time was determined as 625 s. Under `CCOc1cccc(-c2noc(-c3nnn(Cc4nc(-c5cccc(C)c5)oc4C)c3C)n2)c1` stands 1410 s. On to `COc1ccc(CC(=O)N2C[C@@H]3C[C@H]2C[C@@H]3NS(=O)(=O)c2ccccc2)cc1`, for which the RP-LC retention time came to 768 s. The compound `Cc1cc(Cl)ccc1OCC(=O)NCC1CCOCC1` yielded an RP-LC retention time of 828 s.

Compound `COc1ccc2c(c1)CCC1C2CC[C@@]2(C)C1CC[C@@H]2NCCCCCCN1C(=O)CCC1=O` (stereo partly drawn) came in with an RP-LC retention time of 864 s. The compound `COc1cc(OC)c(OC)cc1/C=C\c1ccnc2ccccc12` gave an RP-LC retention time of 679 s. `O=C(NCC1CN(CC2CC2)CC12CCCCC2)Nc1cc(F)ccc1F` (stereo not drawn) returned an RP-LC retention time of 718 s. For `CC(NC(=O)C1CCN(CCc2cn(C)c3ncccc23)CC1)c1ccc(F)cc1` (stereo not drawn) the value was 616 s; for `CCCN(C(=O)Nc1cccc(C)c1C)c1nc(-c2ccc(C3CCCCC3)cc2)cs1`, 619 s; for `O=C(C1CC1)N1[C@H]2CC[C@@H]1c1cnc(-c3ccccc3)nc1C2`, 817 s. Under `CC(C)CCN1CC(=O)N(Cc2ccc(N3CCOCC3)cc2)C(c2cccs2)C1=O` (stereo not drawn) stands 836 s; under `CSc1nc2c(c(=O)n1-c1ccc([N+](=O)[O-])cc1)SCC2`, 816 s. For the compound `Cc1nn(C(C)C)c(C)c1S(=O)(=O)N1CCN(C(=O)c2cncc(Br)c2)CC1`, the RP-LC retention time worked out at 762 s. `CN1C(=O)c2cccn2CC1CNC(=O)Nc1ccc2c(c1)OCCO2` (stereo not drawn) displayed an RP-LC retention time of 624 s. Turning to `CC(=O)N1CCC(CC(=O)N2CCc3nn(CC4CC4)c(=O)n3CC2)CC1`, the RP-LC retention time came out at 596 s.

Consider `Cc1ccc(C)c(N2CCN(Cc3nc4nc(C)cc(N5CCN(C)CC5)n4n3)CC2)c1`, for which the RP-LC retention time amounted to 593 s. For `COc1ccc(Cc2nc3nccc(-c4cc5ccccc5o4)n3n2)cc1` the value was 1090 s. In turn, `CCC(=O)NCc1nc2c(n1CC)CN(S(=O)(=O)c1cccc(F)c1)CC2` displayed an RP-LC retention time of 529 s. `Cc1ccc(C)c(NC(=O)Cn2nc3cc(C)nc(N4CCCC4)n3c2=O)c1`: the RP-LC retention time is 785 s. Consider `CC(C)c1cc(NCc2ccccn2)n2ncc(-c3ccccc3)c2n1`, for which the RP-LC retention time turned out to be 1010 s.

The compound `Cn1nc(C(=O)N2C[C@@H](Oc3ccccc3)C[C@H]2C(=O)NC2CC2)c2ccccc21` yielded an RP-LC retention time of 802 s. On to `CC(C)(C)OC(=O)N1CCN(CCNC(=O)CSc2nc3ccccc3o2)CC1`, for which the RP-LC retention time was 595 s.

In the case of `CC(C)n1c(=O)c(NCc2ccc(N3CCOCC3)cc2)nc2ccncc21`, the RP-LC retention time was determined as 606 s. On to `CCOc1ccccc1NC(=O)N1CCCC(C)(C(=O)NCc2cccc(OC)c2)C1` (stereo not drawn), for which the RP-LC retention time amounted to 958 s. `CCCS(=O)(=O)N1CC(=O)N(c2ccc(C)c(Cl)c2)C(C)(C(=O)NC2CCCCC2)C1` (stereo not drawn) came in with an RP-LC retention time of 979 s. `COc1cc(CN2CC(F)(F)C[C@H]2c2nnc(C3CC3)o2)ccc1F` showed an RP-LC retention time of 931 s. Compound `O=C(c1cn(-c2cc(N3CCSCC3)ncn2)cn1)N1CCC(Cc2ccccc2)CC1` yielded an RP-LC retention time of 1090 s. For the compound `COc1ccc(NC(=O)CSc2nnc(CNC(=O)c3cccs3)o2)c(OC)c1`, the RP-LC retention time was 614 s.

`COc1ccc(OCc2noc(CNC(=O)C3CC(=O)N(c4ccccc4)C3)n2)cc1` (stereo not drawn) had an RP-LC retention time of 736 s. The compound `COCc1nc(C2CCCN(C(=O)NC3CCCC3)C2)no1` (stereo not drawn) showed an RP-LC retention time of 743 s. For the compound `COc1ccc(-c2nnc(Cc3nc(-c4ccc(SC)cc4)no3)o2)cc1`, the RP-LC retention time turned out to be 1040 s. For `Cc1c(CN2CCN(C(=O)[C@H](C)O)CC2)sc2c(N3CCOCC3)nc(-c3cnc(N)nc3)nc12` the value was 612 s; for `CCOc1ccc(-c2noc(Cn3c(=O)n(CCCOC)c(=O)c4ccccc43)n2)cc1`, 1050 s; for `CCOC(=O)C1CCN(c2nc(=O)n(CC(=O)Nc3cccc(C)c3)c3ccccc23)CC1`, 833 s.

`CC1CCN(c2ncc3c(n2)CCC(C(=O)Nc2ccc(N4CCOCC4)cc2)C3)CC1` (stereo not drawn) registered an RP-LC retention time of 721 s.

Compound `COC(=O)c1ccc(C(=O)OC)c(NC(=O)N2CCC(CN3CCCCCC3)CC2)c1` yielded an RP-LC retention time of 678 s. On to `CCCNC(=O)Cn1cc(C(=O)Nc2ccc(C)c(C)c2)c(=O)c2ccc(C)nc21`, for which the RP-LC retention time came out at 966 s. As for `Cn1c(=O)c(N2CCCC(C(=O)NCCc3ccco3)C2)nc2cccnc21` (stereo not drawn), the RP-LC retention time was found to be 827 s. Under `COC(=O)c1ccc(CN2CC(=O)N3CCCC3C2=O)cc1` (stereo not drawn) stands 616 s; under `O=C(Cc1csc(NC(=O)c2ccccc2)n1)Nc1ccc(F)c(Cl)c1`, 869 s; under `CC(=O)N1c2ccc(S(=O)(=O)N3CCCC3C(=O)Nc3cc(C)ccn3)cc2CC1C` (stereo not drawn), 617 s.

As for `CN(C)C(=O)c1ccc2c(c1)nnn2CCNC(=O)Nc1ccc(F)cc1`, the RP-LC retention time is 640 s. Take `O=C(COc1ccccc1)N1CCCC(c2n[nH]c(C3CC3)n2)C1` (stereo not drawn): the RP-LC retention time stood at 637 s. `COc1ccccc1OCC(=O)N1CCN(c2cc(C(C)C)n3cnnc3n2)CC1` showed an RP-LC retention time of 626 s. As for `O=C(Nc1ccc2c(c1)OCCO2)N1CCN(Cc2nc3cccnc3n2-c2ccccc2)CC1`, the RP-LC retention time was 635 s. In turn, `COc1ccc(NC(=O)Nc2cccc(-c3ccc(N4CCOCC4)nn3)c2)cc1Cl` gave an RP-LC retention time of 715 s. For `CCn1nnnc1NCc1ccc2c(c1)n(C)c(=O)n2C` the value was 617 s; for `COCC1CN(C)CC12CCN(Cc1cccc(OC)n1)CC2` (stereo not drawn), 567 s.
